Source: patent publication US7166622B2, “Substituted phenylsulfonamide inhibitors of beta amyloid production” (Wyeth, priority 2002, dated 2007)

Experiments:
beta amyloid production = assay: Repressor Release Assay (RRA); assay type: cell-based; conditions: for fold induction at 20 µg/mL / APPI Fold Increase / APPI % of Example #98: Conc 20 μg/ml; for fold induction at 3 µg/mL: Conc 3 μg/ml; for fold induction at 10 µg/mL: Conc 10 μg/ml; for APPI % of Example #98: relative to Example 98
Outline: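 CHO-K1 cells transiently co-transfected with pRSVO-luc and an APP-lacI construct, replated, then treated in duplicate for 36-48 h at 37 °C, 5% CO2. Compounds diluted in 25 mM Hepes, with Hepes/1% DMSO as diluent control. Luciferase read-out in relative light units; toxicity scored 1 non-toxic, 0 toxic.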

CHO-K1 cells = assay: Toxicity in RRA (loss of luciferase signal); conditions: toxicity = loss of signal (<0.75 fold increase)
Procedure: The beta amyloid inhibitory activity of the compounds of the present invention was determined using the Repressor Release Assay (RRA).
“Fold Increase” refers to the amount of luciferase activity (measured in relative light units) over diluent control. “SEM” refers to the standard error of the mean for fold increase.

[1] = luciferase activity over diluent control, read-out: APPI Fold Increase
[2] = luciferase activity over diluent control

Row | Structure (SMILES) | fold induction at 20 µg/mL (beta amyloid production; [1]) | (%)APPI Toxicity (CHO-K1 cells; Conc 20 μg/ml) | also measured
1 | CC[C@H](C)[C@@H](CO)N(C)S(=O)(=O)c1ccc(Cl)cc1 [Example 90, 4-Chloro-N-methyl-N-[(1S,2S)-1-(hydroxymethyl)-2-methylbutyl]benzenesulfonamide] | 1.6 | 1 (1=non-toxic) | –
2 | CC[C@H](C)[C@@H](CO)NS(=O)(=O)c1ccc(Cl)cc1 [Example 91, 4-Chloro-N-[(1S,2S)-1-(hydroxymethyl)-2-methylbutyl]benzenesulfonamide] | – | 1 (1=non-toxic) | fold induction at 3 µg/mL (beta amyloid production; [1]): 1.71; fold induction at 10 µg/mL (beta amyloid production; [1]): 2.38; (%)APPI Toxicity (CHO-K1 cells; Conc 3 μg/ml): 1 (1=non-toxic); (%)APPI Toxicity (CHO-K1 cells; Conc 10 μg/ml): 1 (1=non-toxic)
3 | CC(C)C[C@@H](CO)NS(=O)(=O)c1ccc(Cl)cc1 [Example 92, 4-chloro-N-[(1S)-1-(hydroxymethyl)-3-methylbutyl]benzenesulfonamide] | 1.7 | 1 (1=non-toxic) | –
4 | C[C@@H](NS(=O)(=O)c1ccc(Cl)cc1)[C@@H](O)c1ccccc1 [Example 93, 4-chloro-N-[(1R,2S)-2-hydroxy-1-methyl-2-phenylethyl]benzenesulfonamide] | 1.5 | 1 (1=non-toxic) | –
5 | O=S(=O)(NC1(CO)CCCC1)c1ccc(Br)cc1 [Example 94, 4-bromo-N-[1-(hydroxymethyl)cyclopentyl]benzenesulfonamide] | 2.5 | 1 (1=non-toxic) | –
6 | O=S(=O)(N[C@H](CO)CC1CCCCC1)c1ccc(Cl)cc1 [Example 95, 4-chloro-N-[(1S)-2-cyclohexyl-1-(hydroxymethyl)ethyl]benzenesulfonamide] | 1.6 | 1 (1=non-toxic) | –
7 | O=S(=O)(N[C@H](CO)Cc1ccc(OCc2ccccc2)cc1)c1ccc(Cl)cc1 [Example 96, N-{(1S)-1-[4-(benzyloxy)benzyl]-2-hydroxyethyl}-4-chlorobenzenesulfonamide] | 1.5 | 1 (1=non-toxic) | –
8 | CC[C@](C)(CO)NS(=O)(=O)c1ccc(Cl)cc1 [Example 97, 4-chloro-N-[(1R)-1-(hydroxymethyl)-1-methylpropyl]benzenesulfonamide] | 1.5 | 1 (1=non-toxic) | –
9 | CC[C@H](C)[C@@H](CO)NS(=O)(=O)c1ccc(Br)cc1 [Example 98, 4-bromo-N-[(1S,2S)-1-(hydroxymethyl)-2-methylbutyl]-benzenesulfonamide] | – | 1 (1=non-toxic) | fold induction at 3 µg/mL (beta amyloid production; [1]): 1.79; (%)APPI Toxicity (CHO-K1 cells; Conc 3 μg/ml): 1 (1=non-toxic); (%)APPI Toxicity (CHO-K1 cells; Conc 10 μg/ml): 1 (1=non-toxic)
10 | CCCCC(CO)NS(=O)(=O)c1ccc(Br)cc1 (stereo not shown) [Example 99, 4-bromo-N-[1-(hydroxymethyl)pentyl]benzenesulfonamide] | 1.7 | 1 (1=non-toxic) | –
11 | C[C@@H](NS(=O)(=O)c1ccc(Br)cc1)[C@@H](O)c1ccccc1 [Example 100, 4-bromo-N-[(1R,2S)-2-hydroxy-1-methyl-2-phenylethyl] benzenesulfonamide] | – | 1 (1=non-toxic) | APPI Fold Increase (beta amyloid production; [2]): 1.6 fold; APPI % of Example #98 (beta amyloid production): 41%
12 | O=S(=O)(N[C@H](CO)c1ccccc1)c1ccc(Br)cc1 [Example 101, 4-bromo-N-[(1S)-2-hydroxy-1-phenylethyl]benzenesulfonamide] | 1.6 | 1 (1=non-toxic) | –
13 | CC(C)C[C@H](CO)NS(=O)(=O)c1ccc(Br)cc1 [Example 102, 4-bromo-N-[(1R)-1-(hydroxymethyl)-3-methylbutyl]benzenesulfonamide] | 1.5 | 1 (1=non-toxic) | –
14 | O=S(=O)(NC1(CO)CCCC1)c1ccc(Cl)cc1 [Example 103, 4-chloro-N-[1-(hydroxymethyl)cyclopentyl]benzenesulfonamide] | 2.6 | 1 (1=non-toxic) | –
15 | CCCC(CO)NS(=O)(=O)c1ccc(Br)cc1 (stereo not shown) [Example 104, 4-bromo-N-[1-(hydroxymethyl)butyl]benzenesulfonamide] | 1.5 | 1 (1=non-toxic) | –
16 | CCCC(CO)NS(=O)(=O)c1cccc(Cl)c1 (stereo not shown) [Example 105, 3-chloro-N-[1-(hydroxymethyl)butyl]benzenesulfonamide] | – | – | fold induction at 10 µg/mL (beta amyloid production; [1]): 1.54; (%)APPI Toxicity (CHO-K1 cells; Conc 10 μg/ml): 1 (1=non-toxic)
17 | O=S(=O)(N[C@H](CO)CC1CCCCC1)c1cccc(Cl)c1 [Example 106, 3-chloro-N-[(1S)-2-cyclohexyl-1-(hydroxymethyl)ethyl]benzenesulfonamide] | 1.6 | 1 (1=non-toxic) | –
18 | CSCC[C@H](CO)NS(=O)(=O)c1cccc(Cl)c1 [Example 107, 3-chloro-N-[(1R)-1-(hydroxymethyl)-3-(methylthio)propyl]benzenesulfonamide] | – | – | fold induction at 1 µg/mL (beta amyloid production; Conc 1 μg/ml, luciferase activity over diluent control, read-out: APPI Fold Increase): 2.35; (%)APPI Toxicity (CHO-K1 cells; Conc 1 μg/ml): 1 (1=non-toxic)

Row | Structure (SMILES) | fold induction at 20 µg/mL (beta amyloid production; [1]) | (%)APPI Toxicity (CHO-K1 cells; Conc 20 μg/ml) | also measured
19 | CC[C@@H](CO)NS(=O)(=O)c1cccc(Cl)c1 [Example 108, 3-chloro-N-[(1S)-1-(hydroxymethyl)propyl]benzene sulfonamide] | – | – | fold induction at 3 µg/mL (beta amyloid production; [1]): 1.66; (%)APPI Toxicity (CHO-K1 cells; Conc 3 μg/ml): 1 (1=non-toxic)
20 | CC(C)C[C@@H](CO)NS(=O)(=O)c1ccccc1F [Example 109, 2-fluoro-N-[(1S)-1-(hydroxymethyl)-3-methylbutyl]benzenesulfonamide] | 1.9 | 1 (1=non-toxic) | –
21 | CCCCC(CO)NS(=O)(=O)c1ccccc1F (stereo not shown) [Example 110, 2-fluoro-N-[1-(hydroxymethyl)pentyl] benzenesulfonamide] | – | 1 (1=non-toxic) | APPI Fold Increase (beta amyloid production; [2]): 1.7 fold; APPI % of Example #98 (beta amyloid production): 46.5%
22 | C[C@H](NS(=O)(=O)c1ccccc1F)[C@@H](O)c1ccccc1 [Example 111, 2-fluoro-N-[(1 S,2 S)-2-hydroxy-1-methyl-2-phenylethyl] benzenesulfonamide] | – | 1 (1=non-toxic) | APPI Fold Increase (beta amyloid production; [2]): 1.7 fold; APPI % of Example #98 (beta amyloid production): 47.8%
23 | O=S(=O)(N[C@H](CO)c1ccccc1)c1ccccc1F [Example 112, 2-fluoro-N-[(1S)-2-hydroxy-1-phenylethyl]benzene sulfonamide] | 1.8 | 1 (1=non-toxic) | –
24 | CC(C)C[C@H](CO)NS(=O)(=O)c1ccccc1F [Example 113, 2-fluoro-N-[(1R)-1-(hydroxymethyl)-3-methylbutyl]benzenesulfonamide] | 1.6 | 1 (1=non-toxic) | –
25 | O=S(=O)(NC1(CO)CCCC1)c1ccccc1F [Example 114, 2-fluoro-N-[1-(hydroxymethyl)cyclopentyl]benzenesulfonamide] | 1.5 | 1 (1=non-toxic) | –
26 | O=S(=O)(N[C@H](CO)CC1CCCCC1)c1ccccc1F [Example 115, N-[(1S)-2-cyclohexyl-1-(hydroxymethyl)ethyl]-2-fluorobenzenesulfonamide] | 1.8 | 1 (1=non-toxic) | –
27 | CSc1ccc([C@H](O)[C@H](CO)NS(=O)(=O)c2ccccc2F)cc1 [Example 116, 2-fluoro-N-{(1S,2S)-2-hydroxy-1-(hydroxymethyl)-2-[4-(methylthio)phenyl]ethyl}benzenesulfonamide] | 1.6 | 1 (1=non-toxic) | –
28 | O=S(=O)(N[C@H](CO)Cc1ccccc1)c1ccccc1F [Example 118, N-[(1S)-1-benzyl-2-hydroxyethyl]-2-fluorobenzenesulfonamide] | 1.6 | 1 (1=non-toxic) | –
29 | CC(C)[C@@H](CO)NS(=O)(=O)c1ccccc1F [Example 119, 2-fluoro-N-[(1S)-1-(hydroxymethyl)-2-methylpropyl]benzenesulfonamide] | 1.5 | 1 (1=non-toxic) | –
30 | O=S(=O)(NC1(CO)CCCCC1)c1ccc(Br)cc1 [Example 120, 4-Bromo-N-[1-(hydroxymethyl)-cyclohexyl]-benzenesulfonamide] | 5 | 1 (1=non-toxic) | –
31 | O=S(=O)(NC1(CO)CC2CCC1C2)c1ccc(Br)cc1 (stereo not shown) [Example 121, 4-bromo-N-[2-(hydroxymethyl)bicyclo[2.2.1.]hept-2-yl]benzenesulfonamide] | – | 1 (1=non-toxic) | APPI Fold Increase (beta amyloid production; [2]): 1.7 fold; APPI % of Example #98 (beta amyloid production): 45.1%
32 | O=S(=O)(NC1(CO)CCc2ccccc21)c1ccc(Br)cc1 (stereo not shown) [Example 122, 4-bromo-N-[1-(hydroxymethyl)-2,3-dihydro-1H-inden-1-yl]benzenesulfonamide] | 1.5 | 1 (1=non-toxic) | –
33 | O=S(=O)(NC1(CO)CCCCC1)c1ccc(Cl)cc1 [Example 123, 4-chloro-N-[1-(hydroxymethyl)cyclohexyl]benzenesulfonamide] | 4.4 | 1 (1=non-toxic) | –
34 | O=S(=O)(NC1(CO)CCc2ccccc21)c1ccc(Cl)cc1 (stereo not shown) [Example 124, 4-chloro-N-[1-(hydroxymethyl)-2,3-dihydro-1H-inden-1-yl]benzenesulfonamide] | 2 | 1 (1=non-toxic) | –
35 | O=S(=O)(NC(CO)(c1ccccc1)C1CCC1)c1ccc(Cl)cc1 (stereo not shown) [Example 125, 4-chloro-N-(1-cyclobutyl-2-hydroxy-1-phenylethyl)benzenesulfonamide] | 1.8 | 1 (1=non-toxic) | –
